{"source": "patent US11787825B2", "about": "(priority 2021, dated 2023)", "key": {"physchem": {"test": "physchem", "settings": "25 °C, thermodynamic from solid"}, "[1]": {"settings": "1.0% DMSO, 24-hour incubation at ambient temperature, maximum theoretical compound concentration 100 μM; for pH 2 solubility: 0.1N HCL; for pH 7 solubility: 1×PBS buffer (pH 7.4)"}, "[2]": {"settings": "Beagle, in vivo, po; for Dog F % (suspension): pH 2"}, "[3]": {"settings": "fasted state simulated intestinal fluid (FaSSIF), fassif"}, "[4]": {"settings": "fed state simulated intestinal fluid (FeSSIF), fessif"}}, "note": "Marks after values point to notes of the source that are not given here.", "data": [{"smiles": "CC(C)(C#Cc1ccc(-c2ccc(Cl)c3c(N(C(=O)CCC(=O)OCOP(=O)(O)O)S(C)(=O)=O)nn(CC(F)(F)F)c23)c([C@H](Cc2cc(F)cc(F)c2)NC(=O)Cn2nc(C(F)(F)F)c3c2C(F)(F)[C@@H]2C[C@H]32)n1)S(C)(=O)=O", "note": "[Compound 28, (phosphonooxy)methyl 4-(N-(4-chloro-7-(2-((S)-1-(2-((3bS,4aR)-5,5-difluoro-3-(trifluoromethyl)-3b,4,4a,5-tetrahydro-1H-cyclopropa[3,4]cyclopenta[1,2-c]pyrazol-1-yl)acetamido)-2-(3,5-difluorophenyl)ethyl)-6-(3-methyl-3-(methylsulfonyl)but-1-yn-1-yl)pyridin-3-yl)-1-(2,2,2-trifluoroethyl)-1H-indazol-3-yl)methylsulfonamido)-4-oxobutanoate]", "values": [{"measurement": "solubility", "setting": "physchem; [3]", "value": 555, "unit": "µg/mL"}, {"measurement": "solubility", "setting": "physchem; [4]", "value": 319, "unit": "µg/mL"}, {"measurement": "pH 2 solubility", "setting": "[1]", "value": 1, "unit": "μM"}, {"measurement": "pH 7 solubility", "setting": "[1]", "value": 86, "unit": "μM"}, {"measurement": "Dog F % (solution)", "setting": "[2]", "value": "51^b %"}]}, {"smiles": "CC(C)(C#Cc1ccc(-c2ccc(Cl)c3c(N(C(=O)CCCN(CC(=O)O)C(=O)OCOP(=O)(O)O)S(C)(=O)=O)nn(CC(F)(F)F)c23)c([C@H](Cc2cc(F)cc(F)c2)NC(=O)Cn2nc(C(F)(F)F)c3c2C(F)(F)[C@@H]2C[C@H]32)n1)S(C)(=O)=O", "note": "[Compound 30, N-(4-(N-(4-chloro-7-(2-((S)-1-(2-((3bS,4aR)-5,5-difluoro-3-(trifluoromethyl)-3b,4,4a,5-tetrahydro-1H-cyclopropa[3,4]cyclopenta[1,2-c]pyrazol-1-yl)acetamido)-2-(3,5-difluorophenyl)ethyl)-6-(3-methyl-3-(methylsulfonyl)but-1-yn-1-yl)pyridin-3-yl)-1-(2,2,2-trifluoroethyl)-1H-indazol-3-yl)methylsulfonamido)-4-oxobutyl)-N-(((phosphonooxy)methoxy)carbonyl)glycine]", "values": [{"measurement": "solubility", "setting": "physchem; [3]", "value": "> 1100", "unit": "µg/mL"}, {"measurement": "solubility", "setting": "physchem; [4]", "value": 5830, "unit": "µg/mL"}, {"measurement": "pH 2 solubility", "setting": "[1]", "value": 1, "unit": "μM"}, {"measurement": "pH 7 solubility", "setting": "[1]", "value": 100, "unit": "μM"}, {"measurement": "Dog F % (solution)", "setting": "[2]", "value": "18^c %"}, {"measurement": "Dog F % (suspension)", "setting": "[2]", "value": 18, "unit": "%"}]}, {"smiles": "CC(C)(C#Cc1ccc(-c2ccc(Cl)c3c(N(C(=O)CCCN(CCC(=O)O)C(=O)OCOP(=O)(O)O)S(C)(=O)=O)nn(CC(F)(F)F)c23)c([C@H](Cc2cc(F)cc(F)c2)NC(=O)Cn2nc(C(F)(F)F)c3c2C(F)(F)[C@@H]2C[C@H]32)n1)S(C)(=O)=O", "note": "[Compound 31, 3-((4-(N-(4-chloro-7-(2-((S)-1-(2-((3bS,4aR)-5,5-difluoro-3-(trifluoromethyl)-3b,4,4a,5-tetrahydro-1H-cyclopropa[3,4]cyclopenta[1,2-c]pyrazol-1-yl)acetamido)-2-(3,5-difluorophenyl)ethyl)-6-(3-methyl-3-(methylsulfonyl)but-1-yn-1-yl)pyridin-3-yl)-1-(2,2,2-trifluoroethyl)-1H-indazol-3-yl)methylsulfonamido)-4-oxobutyl)(((phosphonooxy)methoxy)carbonyl)amino)propanoic acid]", "values": [{"measurement": "solubility", "setting": "physchem; [3]", "value": 2930, "unit": "µg/mL"}, {"measurement": "solubility", "setting": "physchem; [4]", "value": 902, "unit": "µg/mL"}, {"measurement": "pH 2 solubility", "setting": "[1]", "value": 1, "unit": "μM"}, {"measurement": "pH 7 solubility", "setting": "[1]", "value": 79, "unit": "μM"}, {"measurement": "Dog F % (suspension)", "setting": "[2]", "value": 15, "unit": "%"}]}, {"smiles": "CN(CCCC(=O)N(c1nn(CC(F)(F)F)c2c(-c3ccc(C#CC(C)(C)S(C)(=O)=O)nc3[C@H](Cc3cc(F)cc(F)c3)NC(=O)Cn3nc(C(F)(F)F)c4c3C(F)(F)[C@@H]3C[C@H]43)ccc(Cl)c12)S(C)(=O)=O)C(=O)OCOP(=O)(O)O", "note": "[Compound 32, (phosphonooxy)methyl (4-(N-(4-chloro-7-(2-((S)-1-(2-((3bS,4aR)-5,5-difluoro-3-(trifluoromethyl)-3b,4,4a,5-tetrahydro-111-cyclopropa[3,4]cyclopenta [1,2-c]pyrazol-1-yl)acetamido)-2-(3,5-difluorophenyl)ethyl)-6-(3-methyl-3-(methylsulfonyl)but-1-yn-1-yl)pyridin-3-yl)-1-(2,2,2-trifluoroethyl)-1H-indazol-3-yl)methylsulfonamido)-4-oxobutyl)(methyl)carbamate]", "values": [{"measurement": "solubility", "setting": "physchem; [3]", "value": 194, "unit": "µg/mL"}, {"measurement": "solubility", "setting": "physchem; [4]", "value": 210, "unit": "µg/mL"}, {"measurement": "pH 2 solubility", "setting": "[1]", "value": 1, "unit": "μM"}, {"measurement": "pH 7 solubility", "setting": "[1]", "value": 100, "unit": "μM"}, {"measurement": "Dog F % (solution)", "setting": "[2]", "value": "31^b %"}]}, {"smiles": "CC(C)(C#Cc1ccc(-c2ccc(Cl)c3c(N(C(=O)CCCN(C(=O)OCOP(=O)(O)O)[C@H](C(=O)O)c4ccccc4)S(C)(=O)=O)nn(CC(F)(F)F)c23)c([C@H](Cc2cc(F)cc(F)c2)NC(=O)Cn2nc(C(F)(F)F)c3c2C(F)(F)[C@@H]2C[C@H]32)n1)S(C)(=O)=O", "note": "[Compound 40]", "values": [{"measurement": "pH 2 solubility", "setting": "[1]", "value": 1, "unit": "μM"}, {"measurement": "pH 7 solubility", "setting": "[1]", "value": 100, "unit": "μM"}, {"measurement": "Dog F % (suspension)", "setting": "[2]", "value": 5, "unit": "%"}]}, {"smiles": "CC(C)(CC(=O)N(c1nn(CC(F)(F)F)c2c(-c3ccc(C#CC(C)(C)S(C)(=O)=O)nc3[C@H](Cc3cc(F)cc(F)c3)NC(=O)Cn3nc(C(F)(F)F)c4c3C(F)(F)[C@@H]3C[C@H]43)ccc(Cl)c12)S(C)(=O)=O)CN(CC(=O)O)C(=O)OCOP(=O)(O)O", "note": "[Compound 42, N-(4-(N-(4-chloro-7-(2-((S)-1-(2-((3bS,4aR)-5,5-difluoro (trifluoromethyl)-3b,4,4a,5-tetrahydro-1H-cyclopropa[3,4]cyclopenta[1,2-c]pyrazolyl)acetamido)-2-(3,5-difluorophenyl)ethyl)-6-(3-methyl-3-(methylsulfonyl)but-1-ynyl)pyridin-3-yl)-1-(2,2,2-trifluoroethyl)-1H-indazol-3-yl)methylsulfonamido)-2,2-dimethyl-4-oxobutyl)-N-(((phosphonooxy)methoxy)carbonyl)glycine]", "values": [{"measurement": "pH 2 solubility", "setting": "[1]", "value": 1, "unit": "μM"}, {"measurement": "pH 7 solubility", "setting": "[1]", "value": 100, "unit": "μM"}, {"measurement": "Dog F % (suspension)", "setting": "[2]", "value": 9, "unit": "%"}]}, {"smiles": "Cc1cc(CC(=O)O)cc(OP(=O)(O)O)c1C(C)(C)CC(=O)N(c1nn(CC(F)(F)F)c2c(-c3ccc(C#CC(C)(C)S(C)(=O)=O)nc3[C@H](Cc3cc(F)cc(F)c3)NC(=O)Cn3nc(C(F)(F)F)c4c3C(F)(F)[C@@H]3C[C@H]43)ccc(Cl)c12)S(C)(=O)=O", "note": "[Compound 47, 2-(4-(4-(N-(4-chloro-7-(2-((S)-1-(2-((3bS,4aR)-5,5-difluoro (trifluoromethyl)-3b,4,4a,5-tetrahydro-1H-cyclopropa[3,4]cyclopenta[1,2-c]pyrazolyl)acetamido)-2-(3,5-difluorophenyl)ethyl)-6-(3-methyl-3-(methylsulfonyl)but-1-ynyl)pyridin-3-yl)-1-(2,2,2-trifluoroethyl)-1H-indazol-3-yl)methylsulfonamido)-2-methyloxobutan-2-yl)-3-methyl-5-(phosphonooxy)phenyl)acetic acid]", "values": [{"measurement": "solubility", "setting": "physchem; fassif", "value": 1420, "unit": "µg/mL"}, {"measurement": "solubility", "setting": "physchem; fessif", "value": 226, "unit": "µg/mL"}, {"measurement": "Dog F % (suspension)", "setting": "[2]", "value": 7, "unit": "%"}]}, {"smiles": "Cc1cc(C)c(C(C)(C)CC(=O)N(c2nn(CC(F)(F)F)c3c(-c4ccc(C#CC(C)(C)S(C)(=O)=O)nc4[C@H](Cc4cc(F)cc(F)c4)NC(=O)Cn4nc(C(F)(F)F)c5c4C(F)(F)[C@@H]4C[C@H]54)ccc(Cl)c23)S(C)(=O)=O)c(OP(=O)(O)O)c1", "note": "[Compound 48, 2-(4-(N-(4-chloro-7-(2-((S)-1-(2-03bS,4aR)-5,5-difluoro (trifluoromethyl)-3b,4,4a,5-tetrahydro-1H-cyclopropa[3,4]cyclopenta[1,2-c]pyrazolyl)acetamido)-2-(3,5-difluorophenyl)ethyl)-6-(3-methyl-3-(methylsulfonyl)but-1-ynyl)pyridin-3-yl)-1-(2,2,2-trifluoroethyl)-1H-indazol-3-yl)methylsulfonamido)-2-methyl oxobutan-2-yl)-3,5-dimethylphenyl dihydrogen phosphate]", "values": [{"measurement": "solubility", "setting": "physchem; fassif", "value": 777, "unit": "µg/mL"}, {"measurement": "solubility", "setting": "physchem; fessif", "value": 948, "unit": "µg/mL"}, {"measurement": "Dog F % (solution)", "setting": "[2]", "value": "60^b %"}, {"measurement": "Dog F % (suspension)", "setting": "[2]", "value": 16, "unit": "%"}]}, {"smiles": "Cc1cc(CP(=O)(O)O)c(C(C)(C)CC(=O)N(c2nn(CC(F)(F)F)c3c(-c4ccc(C#CC(C)(C)S(C)(=O)=O)nc4[C@H](Cc4cc(F)cc(F)c4)NC(=O)Cn4nc(C(F)(F)F)c5c4C(F)(F)[C@@H]4C[C@H]54)ccc(Cl)c23)S(C)(=O)=O)c(OP(=O)(O)O)c1", "note": "[Compound 55, (2-(4-(N-(4-chloro-7-(2-((S)-1-(2-((3bS,4aR)-5,5-difluoro-3-(trifluoromethyl)-3b,4,4a,5-tetrahydro-1H-cyclopropa[3,4]cyclopenta[1,2-c]pyrazol-1-yl)acetamido)-2-(3,5-difluorophenyl)ethyl)-6-(3-methyl-3-(methylsulfonyl)but-1-yn-1-yl)pyridin-3-yl)-1-(2,2,2-trifluoroethyl)-1H-indazol-3-yl)methylsulfonamido)-2-methyl-4-oxobutan-2-yl)-5-methyl-3-(phosphonooxy)benzyl)phosphonic acid]", "values": [{"measurement": "solubility", "setting": "physchem; fassif", "value": "> 10000", "unit": "µg/mL"}, {"measurement": "Dog F % (solution)", "setting": "[2]", "value": "33 ^c %"}]}, {"smiles": "Cc1cc(CC(=O)N[C@@H](CC(=O)O)C(=O)O)c(C(C)(C)CC(=O)N(c2nn(CC(F)(F)F)c3c(-c4ccc(C#CC(C)(C)S(C)(=O)=O)nc4[C@H](Cc4cc(F)cc(F)c4)NC(=O)Cn4nc(C(F)(F)F)c5c4C(F)(F)[C@@H]4C[C@H]54)ccc(Cl)c23)S(C)(=O)=O)c(OP(=O)(O)O)c1", "note": "[Compound 59, (2-(2-(4-(N-(4-chloro-7-(2-((S)-1-(2-((3bS,4aR)-5,5-difluoro-3-(trifluoromethyl)-3b,4,4a,5-tetrahydro-1H-cyclopropa[3,4]cyclopenta[1,2-c]pyrazolyl)acetamido)-2-(3,5-difluorophenyl)ethyl)-6-(3-methyl-3-(methylsulfonyl)but-1-ynyl)pyridin-3-yl)-1-(2,2,2-trifluoroethyl)-1H-indazol-3-yl)methylsulfonamido)-2-methyloxobutan-2-yl)-5-methyl-3-(phosphonooxy)phenyl)acetyl)-L-aspartic acid]", "values": [{"measurement": "Dog F % (solution)", "setting": "[2]", "value": "27 ^c %"}]}]}
